Measurements as given in patent publication US12643886B2 (Ontario Institute for Cancer Research (OICR), priority 2021, dated 2026).

Tests used:
Type in all cases: biochemical
Aurora A = biological target: T1, Aurora A (Homo sapiens, UniProt O14965); test: Counter-screen against Aurora A; details: read-out: AUR-A (IC50)
T1 sequence (O14965 1-403): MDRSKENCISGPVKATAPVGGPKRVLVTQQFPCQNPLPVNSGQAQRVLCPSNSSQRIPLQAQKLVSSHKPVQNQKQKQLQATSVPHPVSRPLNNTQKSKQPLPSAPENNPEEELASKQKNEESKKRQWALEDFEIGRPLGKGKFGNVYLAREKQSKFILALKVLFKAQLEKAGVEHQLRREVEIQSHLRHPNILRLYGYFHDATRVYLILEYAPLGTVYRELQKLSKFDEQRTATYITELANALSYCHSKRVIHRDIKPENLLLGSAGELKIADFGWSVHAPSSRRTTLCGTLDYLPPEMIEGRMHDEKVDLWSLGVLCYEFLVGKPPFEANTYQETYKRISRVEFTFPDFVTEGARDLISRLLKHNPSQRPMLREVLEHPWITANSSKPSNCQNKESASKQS
Summary of the method: (§1)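 Full-length recombinant NUAK2 incubated 40 min at room temperature in 8 mM MOPS pH 7.0, 0.2 mM EDTA, 10 mM magnesium acetate, 300 μM peptide substrate and 33P-ATP. Stopped with 0.5% phosphoric acid; filter-bound label counted by scintillation. IC50 reported as ranges; NUAK1 and Aurora A served as counter-screens.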

NUAK1 = biological target: T2, NUAK1 (Homo sapiens, UniProt O60285); test: Counter-screen against NUAK1
T2 sequence (O60285 1-661): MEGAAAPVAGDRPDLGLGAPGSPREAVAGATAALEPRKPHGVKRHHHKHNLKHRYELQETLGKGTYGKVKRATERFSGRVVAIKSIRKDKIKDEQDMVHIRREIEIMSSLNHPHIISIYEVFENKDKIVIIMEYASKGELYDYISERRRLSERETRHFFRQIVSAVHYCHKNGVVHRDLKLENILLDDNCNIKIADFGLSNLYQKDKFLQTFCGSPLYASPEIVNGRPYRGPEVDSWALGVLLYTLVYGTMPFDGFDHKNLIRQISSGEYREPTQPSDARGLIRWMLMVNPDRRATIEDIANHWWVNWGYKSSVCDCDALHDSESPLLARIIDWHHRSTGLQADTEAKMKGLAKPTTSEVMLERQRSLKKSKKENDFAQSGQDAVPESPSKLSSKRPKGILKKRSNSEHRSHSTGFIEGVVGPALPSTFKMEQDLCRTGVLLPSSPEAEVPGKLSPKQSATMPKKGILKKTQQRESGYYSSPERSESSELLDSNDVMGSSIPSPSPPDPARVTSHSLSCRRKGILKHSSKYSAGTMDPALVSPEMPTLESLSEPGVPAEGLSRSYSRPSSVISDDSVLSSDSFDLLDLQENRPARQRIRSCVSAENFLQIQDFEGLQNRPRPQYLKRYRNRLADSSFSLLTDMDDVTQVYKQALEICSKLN
Summary of the method: as §1

NUAK2 (h) = biological target: T3, NUAK2 (h) (Homo sapiens, UniProt Q9H093); test: NUAK2 enzymatic assay (radiometric, Eurofins); details: full-length recombinant enzyme
T3 construct: This assay was done radiometrically using full-length, recombinant enzyme; purchased Eurofins
T3 sequence (Q9H093 1-628): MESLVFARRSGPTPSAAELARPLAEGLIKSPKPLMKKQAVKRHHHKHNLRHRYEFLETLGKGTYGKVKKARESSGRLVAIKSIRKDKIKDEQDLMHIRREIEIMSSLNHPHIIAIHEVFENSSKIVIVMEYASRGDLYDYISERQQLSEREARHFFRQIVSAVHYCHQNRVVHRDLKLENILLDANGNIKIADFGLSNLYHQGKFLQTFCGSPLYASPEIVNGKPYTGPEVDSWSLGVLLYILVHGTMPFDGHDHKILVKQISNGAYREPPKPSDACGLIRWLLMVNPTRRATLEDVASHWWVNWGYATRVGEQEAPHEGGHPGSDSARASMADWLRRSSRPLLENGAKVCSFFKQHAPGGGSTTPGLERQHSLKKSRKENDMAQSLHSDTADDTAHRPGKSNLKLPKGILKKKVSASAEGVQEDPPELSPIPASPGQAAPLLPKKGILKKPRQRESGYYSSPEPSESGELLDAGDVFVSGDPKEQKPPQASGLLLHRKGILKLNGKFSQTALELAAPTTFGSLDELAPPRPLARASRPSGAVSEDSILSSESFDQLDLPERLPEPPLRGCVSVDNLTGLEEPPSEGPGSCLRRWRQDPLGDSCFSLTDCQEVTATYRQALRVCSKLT
Summary of the method: as §1

SMILES	IC50 (Aurora A) [nM]	IC50 (NUAK1) [nM]	IC50 (NUAK2 (h)) [nM]
C[C@@H]1CN(C2CCN(c3ccc(Nc4ncc(C(F)(F)F)c(Nc5cccc6c5C(=O)NC6)n4)c(OC(F)F)c3)CC2)C[C@H](C)N1C [Compound I-48, 7-((2-((2-(difluoromethoxy)-4-(4-((3S,5R)-3,4,5-trimethylpiperazin-1-yl)piperidin-1-yl)phenyl)amino)-5-(trifluoromethyl)pyrimidin-4-yl)amino)isoindolin-1-one]	101 to 1000	11 to 100	0.1 to 10
C[C@@H]1CN(c2ccc(Nc3ncc(C(F)(F)F)c(Nc4cccc5c4C(=O)NC5)n3)c(OC(F)F)c2)C[C@H](C)N1 [Compound I-49, 7-((2-((2-(difluoromethxoy)-4-((3S,5R)-3,5-dimethylpiperazin-1-yl)phenyl)amino)-5-(trifluoromethyl)pyrimidin-4-yl)amino)isoindolin-1-one]	> 1000	11 to 100	0.1 to 10
C[C@H]1CN(c2ccc(Nc3ncc(C(F)(F)F)c(Nc4cccc5c4C(=O)NC5)n3)c(OC(F)F)c2)CCN1 [Compound I-50, (S)-7-((2-((2-(difluoromethoxy)-4-(3-methylpiperazin-1-yl)phenyl)amino)-5-(trifluoromethyl)pyrimidin-4-yl)amino)isoindolin-1-one]	> 1000	11 to 100	0.1 to 10
CN1CCN(c2ccc(Nc3ncc(Cl)c(Nc4cccc5c4C(=O)NC5)n3)cc2)CC1 [Compound I-51, 7-((5-chloro-2-((4-(4-methylpiperazin-1-yl)phenyl)amino)pyrimidin-4-yl)amino)isoindolin-1-one]	0.1 to 10	0.1 to 10	0.1 to 10
O=C1NCc2cccc(Nc3nc(Nc4cc5c(cc4Cl)CNCC5)ncc3C(F)(F)F)c21 [Compound I-52, 7-((2-((7-chloro-1,2,3,4-tetrahydroisoquinolin-6-yl)amino)-5-(trifluoromethyl)pyrimidin-4-yl)amino)isoindolin-1-one]	11 to 100	11 to 100	11 to 100
CN1CCN(c2ccc(Nc3ncc(C(F)(F)F)c(Nc4cccc5c4C(=O)NC5)n3)c(OC(F)(F)F)c2)CC1 [Compound I-53, 7-((2-((4-(4-methylpiperazin-1-yl)-2-(trifluoromethoxy)phenyl)amino)-5-(trifluoromethyl)pyrimidin-4-yl)amino)isoindolin-1-one]	> 1000	101 to 1000	11 to 100
O=C1NCc2cccc(Nc3nc(Nc4ccc(N5CCCNCC5)cc4OC(F)F)ncc3C(F)(F)F)c21 [Compound I-55, 7-((2-((4-(1,4-diazepan-1-yl)-2-(difluoromethoxy)phenyl)amino)-5-(trifluoromethyl)pyrimidin-4-yl)amino)isoindolin-1-one]	> 1000	11 to 100	0.1 to 10
C[C@@H]1CN(c2ccc(Nc3ncc(C(F)(F)F)c(Nc4cccc5c4C(=O)NC5)n3)c(OC(F)F)c2)CCN1 [Compound I-57, (R)-7-((2-((2-(difluoromethoxy)-4-(3-methylpiperazin-1-yl)phenyl)amino)-5-(trifluoromethyl)pyrimidin-4-yl)amino)isoindolin-1-one]	> 1000	11 to 100	0.1 to 10
O=C1NCc2cccc(Nc3nc(Nc4ccc(N5CCC6(CCNCC6)CC5)cc4OC(F)F)ncc3C(F)(F)F)c21 [Compound I-58, 7-((2-((2-(difluoromethoxy)-4-(3,9-diazaspiro[5.5]undecan-3-yl)phenyl)amino)-5-(trifluoromethyl)pyrimidin-4-yl)amino)isoindolin-1-one]	101 to 1000	11 to 100	11 to 100
O=C1NCc2cccc(Nc3nc(Nc4ccc(N5CCOCC5)cc4OC(F)F)ncc3C(F)(F)F)c21 [Compound I-60, 7-((2-((2-(difluoromethoxy)-4-morpholinophenyl)amino)-5-(trifluoromethyl)pyrimidin-4-yl)amino)isoindolin-1-one]	101 to 1000	11 to 100	11 to 100
CCN(CC)CCOc1ccc(Nc2ncc(C(F)(F)F)c(Nc3cccc4c3C(=O)NC4)n2)cc1 [Compound I-61, 7-((2-((4-(2-(diethylamino)ethoxy)phenyl)amino)-5-(trifluoromethyl)pyrimidin-4-yl)amino)isoindolin-1-one]	101 to 1000	11 to 100	11 to 100
CCN(CC)CCOc1ccc(Nc2ncc(Cl)c(Nc3cccc4c3C(=O)NC4)n2)cc1 [Compound I-62, 7-((5-chloro-2-((4-(2-(diethylamino)ethoxy)phenyl)amino)pyrimidin-4-yl)amino)isoindolin-1-one]	11 to 100	0.1 to 10	0.1 to 10

The remaining lines, values ahead:

IC50 (Aurora A) [nM]	IC50 (NUAK1) [nM]	IC50 (NUAK2 (h)) [nM]	SMILES
> 1000	11 to 100	0.1 to 10	O=C1NCc2cccc(Nc3nc(Nc4ccc(N5C[C@H]6CC[C@@H](C5)N6)cc4OC(F)F)ncc3Cl)c21 [Compound I-64, 7-((2-((4-((1R,5S)-3,8-diazabicyclo[3.2.1]octan-3-yl)-2-(difluoromethoxy)phenyl)amino)-5-chloropyrimidin-4-yl)amino)isoindolin-1-one]
101 to 1000	101 to 1000	0.1 to 10	CC1(C)CN(c2ccc(Nc3ncc(C(F)(F)F)c(Nc4cccc5c4C(=O)NC5)n3)c(OC(F)F)c2)CCN1 [Compound I-65, 7-((2-((2-(difluoromethoxy)-4-(3,3-dimethylpiperazin-1-yl)phenyl)amino)-5-(trifluoromethyl)pyrimidin-4-yl)amino)isoindolin-1-one]
101 to 1000	11 to 100	0.1 to 10	O=C1NCc2cccc(Nc3nc(Nc4ccc(N5C[C@@H]6C[C@H]5CN6)cc4OC(F)F)ncc3Cl)c21 [Compound I-66, 7-((2-((4-((1S,4S)-2,5-diazabicyclo[2.2.1]heptan-2-yl)-2-(difluoromethoxy)phenyl)amino)-5-chloropyrimidin-4-yl)amino)isoindolin-1-one]
101 to 1000	11 to 100	0.1 to 10	O=C1NCc2cccc(Nc3nc(Nc4ccc(N5CCC(N6CCNCC6)CC5)cc4OC(F)F)ncc3Cl)c21 [Compound I-67, 7-((5-chloro-2-((2-(difluoromethoxy)-4-(4-(piperazin-1-yl)piperidin-1-yl)phenyl)amino)pyrimidin-4-yl)amino)isoindolin-1-one]
101 to 1000	11 to 100	0.1 to 10	COc1nc(N2CCN(C)CC2)ccc1Nc1ncc(C(F)(F)F)c(Nc2cccc3c2C(=O)NC3)n1 [Compound I-68, 7-((2-((2-methoxy-6-(4-methylpiperazin-1-yl)pyridin-3-yl)amino)-5-(trifluoromethyl)pyrimidin-4-yl)amino)isoindolin-1-one]
101 to 1000	11 to 100	0.1 to 10	CN1CCCN(C2CCN(c3ccc(Nc4ncc(C(F)(F)F)c(Nc5cccc6c5C(=O)NC6)n4)c(OC(F)F)c3)CC2)CC1 [Compound I-69, 7-((2-((2-(difluoromethoxy)-4-(4-(4-methyl-1,4-diazepan-1-yl)piperidin-1-yl)phenyl)amino)-5-(trifluoromethyl)pyrimidin-4-yl)amino)isoindolin-1-one]
